Where two headings read alike, the source gives them in different places.
Key:
Format in all cases: in vivo
[1] = test system: Phytophthora infestans (Tomatoes); conditions: one or two days before inoculation
[2] = test system: Plasmopara viticola (Vines); assay: Foliar fungal disease test on plants: Plasmopara viticola (Vines); conditions: one or two days before inoculation
[3] = test system: Puccinia recondita (Wheat); assay: Foliar fungal disease test on plants: Puccinia recondita (Wheat)
Protocol: The compounds were tested against a variety of foliar fungal diseases of plants. The technique employed was as follows.
The plants were grown in John Innes Potting Compost (No 1 or 2) in 4 cm diameter minipots. The test compounds were formulated either by bead milling with aqueous DISPERSOL T or as a solution in acetone or acetone/ethanol which was diluted to the required concentration immediately before use. The formulations (100 ppm active ingredient) were sprayed on to the foliage or applied to the roots of the plants in the soil. The sprays were applied to maximum retention and the root drenches to a final concentration equivalent to approximately 40 ppm a.i. in dry soil. TWEEN 20 was added to give a final concentration of 0.05% when the sprays were applied to cereals.
[…] An exception was the test on Erysiphe graminis in which the plants were inoculated 24 hours before treatment. Foliar pathogens were applied by spray as zoosporangial suspensions onto the leaves of test plants. After inoculation, the plants were put into an appropriate environment to allow infection to proceed and then incubated until the disease was ready for assessment. The period between inoculation and assessment varied from four to fourteen days according to the disease and environment.
The disease level present (i.e. leaf area covered by actively sporulating disease) on each of the treated plants was recorded using the following assessment scale:
Each assessment was then expressed as a percentage of the level of disease present on the untreated control plants. This calculated value is referred to as a POCO (Percentage of Control) value. An example of a typical calculation is as follows:
Disease level on untreated control=90
Disese level on treated plant=30 [formula]
This calculated POCO value is then rounded to the nearest of the values in the 9-point assessment scale shown above. In this particular example, the POCO value would be rounded to 30. If the calculated POCO falls exactly mid-way between two of the points, it is rounded to the lower of the two values.

[4] = test system: Thanatephorus cucumeries (Rice); assay: Foliar fungal disease test on plants: Thanatephorus cucumeries (Rice); conditions: one or two days before inoculation
[5] = test system: Pyricularia oryzae (Rice); conditions: one or two days before inoculation
[6] = test system: Venturia inaequalis (Apples); assay: Foliar fungal disease test on plants: Venturia inaequalis (Apples); conditions: one or two days before inoculation
[7] = test system: Erysiphe graminis tritici (Wheat); assay: Foliar fungal disease test on plants: Erysiphe graminis tritici (Wheat); conditions: plants inoculated 24 hours before treatment
Septoria nodorum (Wheat) = assay: Foliar fungal disease test on plants: Septoria nodorum (Wheat); conditions: one or two days before inoculation
[8] = 100 ppm a.i. foliar spray or root drench (approx. 40 ppm in dry soil)
[9] = 100 ppm a.i. foliar spray or root drench, plants inoculated with Puccinia recondita 48 hours before treatment
[10] = 10 ppm foliar spray only, plants inoculated with Puccinia recondita 48 hours before treatment

| SMILES | POCO (Percentage of Control) disease level, Phytophthora infestans (Tomatoes) [1, 8] | POCO (Percentage of Control) disease level, Plasmopara viticola (Vines) [2, 8] | POCO (Percentage of Control) disease level, Puccinia recondita (Wheat) [3, 9] | POCO (Percentage of Control) disease level, Thanatephorus cucumeries (Rice) [4, 8] | POCO (Percentage of Control) disease level, Pyricularia oryzae (Rice) [5, 8] | POCO (Percentage of Control) disease level, Venturia inaequalis (Apples) [6, 8] | POCO (Percentage of Control) disease level, Erysiphe graminis tritici (Wheat) [7, 8] | POCO (Percentage of Control) disease level, Septoria nodorum (Wheat) (Septoria nodorum (Wheat); [8]) | POCO (Percentage of Control) disease level, Puccinia recondita (Wheat) ([3]; 100 ppm a.i. foliar spray or root drench (approx. 40 ppm in dry soil), one or two days before inoculation) | POCO (Percentage of Control) disease level, Phytophthora infestans (Tomatoes) ([1]; 10 ppm foliar spray only) | POCO (Percentage of Control) disease level, Plasmopara viticola (Vines) ([2]; 10 ppm foliar spray only) | POCO (Percentage of Control) disease level, Puccinia recondita (Wheat) [3, 10] | POCO (Percentage of Control) disease level, Thanatephorus cucumeries (Rice) ([4]; 10 ppm foliar spray only) | POCO (Percentage of Control) disease level, Pyricularia oryzae (Rice) ([5]; 10 ppm foliar spray only) | POCO (Percentage of Control) disease level, Venturia inaequalis (Apples) ([6]; 10 ppm foliar spray only) | POCO (Percentage of Control) disease level, Erysiphe graminis tritici (Wheat) ([7]; 10 ppm foliar spray only) | POCO (Percentage of Control) disease level, Septoria nodorum (Wheat) (Septoria nodorum (Wheat); 10 ppm foliar spray only) |
| --- | --- | --- | --- | --- | --- | --- | --- | --- | --- | --- | --- | --- | --- | --- | --- | --- | --- |
| COC=C(C(=O)OC)c1ccccc1COC(=O)N(C)c1ccccc1C(=O)OC [33 (2)] | 90 (90 and 94 = 60.1-100% disease present) | 10 (10 = 5.1-10% disease present) | 90+ (90 and 94 = 60.1-100% disease present) | 60 (60 = 30.1-60% disease present) | 30 (30 = 20.1-30% disease present) | 60 (60 = 30.1-60% disease present) | 0 (0 = 0% disease present) | 90 (90 and 94 = 60.1-100% disease present) | – | – | – | – | – | – | – | – | – |
| CCN(C(=O)OCc1ccccc1C(=COC)C(=O)OC)c1cc(F)ccc1F [27 (3)] | 20 (20 and 24 = 10.1-20% disease present) | 0 (0 = 0% disease present) | 0+ (0 = 0% disease present) | 0 (0 = 0% disease present) | 0 (0 = 0% disease present) | 0 (0 = 0% disease present) | 0 (0 = 0% disease present) | 30 (30 = 20.1-30% disease present) | – | – | – | – | – | – | – | – | – |
| COC=C(C(=O)OC)c1ccccc1COC(=O)N(C)c1cccc(F)c1 [8 (2)] | 0 (0 = 0% disease present) | 0 (0 = 0% disease present) | 0+ (0 = 0% disease present) | 0 (0 = 0% disease present) | 0 (0 = 0% disease present) | 0 (0 = 0% disease present) | 0 (0 = 0% disease present) | 0 (0 = 0% disease present) | – | – | – | – | – | – | – | – | – |
| COC=C(C(=O)OC)c1ccccc1COC(=O)N(C)c1c(F)cccc1F [23 (2)] | 0 (0 = 0% disease present) | 0 (0 = 0% disease present) | 0+ (0 = 0% disease present) | 0 (0 = 0% disease present) | 0 (0 = 0% disease present) | 0 (0 = 0% disease present) | 0 (0 = 0% disease present) | 0 (0 = 0% disease present) | – | – | – | – | – | – | – | – | – |
| COC=C(C(=O)OC)c1ccccc1COC(=S)Nc1cccc(C(F)(F)F)c1 [2 (6)] | 60 (60 = 30.1-60% disease present) | 30 (30 = 20.1-30% disease present) | – | 90 (90 and 94 = 60.1-100% disease present) | 5 (5 = 3.1-5% disease present) | 3 (3 = 1.1-3% disease present) | 60 (60 = 30.1-60% disease present) | 60 (60 = 30.1-60% disease present) | 30 (30 = 20.1-30% disease present) | – | – | – | – | – | – | – | – |
| COC=C(C(=O)OC)c1ccccc1COC(=S)Oc1ccccc1 [5 (12)] | – | – | – | – | – | – | – | – | – | 90 (90 and 94 = 60.1-100% disease present) | 3 (3 = 1.1-3% disease present) | 90+ (90 and 94 = 60.1-100% disease present) | 60 (60 = 30.1-60% disease present) | 60 (60 = 30.1-60% disease present) | 0 (0 = 0% disease present) | 60 (60 = 30.1-60% disease present) | 90 (90 and 94 = 60.1-100% disease present) |
| COC=C(C(=O)OC)c1ccccc1OC(=O)Nc1ccc(F)cc1F [24 (17)] | 0 (0 = 0% disease present) | 0 (0 = 0% disease present) | 0+ (0 = 0% disease present) | 60 (60 = 30.1-60% disease present) | 0 (0 = 0% disease present) | 0 (0 = 0% disease present) | 0 (0 = 0% disease present) | 0 (0 = 0% disease present) | – | – | – | – | – | – | – | – | – |
| COC=C(C(=O)OC)c1ccccc1OC(=O)N(C)c1ccc(F)cc1F [24 (18)] | – | – | – | – | – | – | – | – | – | 90 (90 and 94 = 60.1-100% disease present) | 90 (90 and 94 = 60.1-100% disease present) | 90+ (90 and 94 = 60.1-100% disease present) | 90 (90 and 94 = 60.1-100% disease present) | 90 (90 and 94 = 60.1-100% disease present) | 90 (90 and 94 = 60.1-100% disease present) | 60 (60 = 30.1-60% disease present) | 90 (90 and 94 = 60.1-100% disease present) |
| COC=C(C(=O)OC)c1ccccc1COC(=O)N(C)c1ccccc1SC [21 (2)] | – | – | – | – | – | – | – | – | – | 90 (90 and 94 = 60.1-100% disease present) | 0 (0 = 0% disease present) | 90+ (90 and 94 = 60.1-100% disease present) | 90 (90 and 94 = 60.1-100% disease present) | 30 (30 = 20.1-30% disease present) | 60 (60 = 30.1-60% disease present) | 90 (90 and 94 = 60.1-100% disease present) | 60 (60 = 30.1-60% disease present) |
| CNC(=O)C(=NOC)c1ccccc1COC(=O)N(C)c1ccccc1 [5 (66)] | 0 (0 = 0% disease present) | 0 (0 = 0% disease present) | 10+ (10 = 5.1-10% disease present) | 0 (0 = 0% disease present) | 0 (0 = 0% disease present) | 0 (0 = 0% disease present) | 0 (0 = 0% disease present) | 5 (5 = 3.1-5% disease present) | – | – | – | – | – | – | – | – | – |
